20 molecules from ChEMBL document CHEMBL6087482, “Discovery of INCB159020, an Orally Bioavailable KRAS G12D Inhibitor” (J Med Chem, 2025) can be followed below.

The nature of series [1]: Inhibition of ERK phosphorylation in KRAS G12D mutant dependent human HPAF-II cells incubated for 2 hrs with human whole blood containing compound by HTRF assay. The series is classed as cell-based.
Series [2] is described as follows: Intrinsic clearance in human liver microsomes at 1 uM measured upto 30 mins in presence of NADPH by LC/MS analysis. The following applies: read-out: CLH (converted). The series is classed as ADME, Microsome.
A short description of series [3]: Apparent permeability across apical to basolateral side in human Caco-2 cells at 50 uM incubated for 120 mins by LC-MS analysis. It counts as ADME, cell-based.
The target of series [4] is GTPase KRas (Homo sapiens, UniProt P01116, G12D). The series is described as follows: Inhibition of bodipy-loaded KRAS G12D mutant (unknown origin) assessed as GDP-GTP exchange preincubated for 4 hrs followed by GppNHp and SOS1 addition and measured after 2 hrs by fluorescence based plate reader analysis.
Series [5] in a line: Inhibition of ERK phosphorylation in KRAS G12D mutant dependent human HPAF-II cells incubated for 2 hrs by HTRF assay. It counts as cell-based.
Series [6] has as its target GTPase KRas (Homo sapiens, UniProt P01116). The series is described as follows: Binding affinity to KRAS (unknown origin) assessed as dissociation constant by SPR analysis.
A short description of series [7]: Oral bioavailability in Non human primate at 2.0 mg/kg. The series is classed as ADME, organism-based. The following applies: primates, in vivo.
Series [8] is described as follows: Half-life in Non human primate at 2.0 mg/kg, po or 1 mg/kg, iv. The series is classed as ADME, organism-based. The following applies: primates, in vivo.
Series [9] is described as follows: Oral bioavailability in Sprague-Dawley rat at 3 mg/kg measured after 24 hrs by LC-MS/MS analysis. The series is classed as ADME, organism-based. The following applies: in vivo.
Series [10] can be described thus: Cmax in Non human primate at 2.0 mg/kg, po or 1 mg/kg, iv. The following applies: primates, in vivo. It counts as ADME, organism-based.
Series [11] can be described thus: Half-life in Sprague-Dawley rat at 3 mg/kg, po or 0.1 mg/kg, iv measured after 24 hrs by LC-MS/MS analysis. The series is classed as ADME, organism-based. The following applies: in vivo.
The next series concerns Primates. The series is described as follows: Clearance in Non human primate assessed as hepatic blood flow at 2.0 mg/kg, po or 1 mg/kg, iv. The series is classed as ADME, organism-based. The following applies: in vivo.
Series [12] is described as follows: Clearance in Sprague-Dawley rat assessed as hepatic blood flow at 3 mg/kg, po or 0.1 mg/kg, iv measured after 24 hrs by LC-MS/MS analysis. The following applies: in vivo. The series is classed as ADME, organism-based.
Series [13] is described as follows: AUC in Sprague-Dawley rat at 3 mg/kg, po or 0.1 mg/kg, iv measured after 24 hrs by LC-MS/MS analysis. The series is classed as ADME, organism-based. The following applies: in vivo.
Series [14] is described as follows: AUC in Non human primate at 2.0 mg/kg, po or 1 mg/kg, iv. The following applies: primates, in vivo. It counts as ADME, organism-based.
Series [15] is described as follows: Cmax in Sprague-Dawley rat at 3 mg/kg, po or 0.1 mg/kg, iv measured after 24 hrs by LC-MS/MS analysis. It counts as ADME, organism-based. The following applies: in vivo.

Where only a bound is given, the exact number is not on record here.

Chain of GTPase KRas (Homo sapiens, UniProt P01116) (P01116 whole entry): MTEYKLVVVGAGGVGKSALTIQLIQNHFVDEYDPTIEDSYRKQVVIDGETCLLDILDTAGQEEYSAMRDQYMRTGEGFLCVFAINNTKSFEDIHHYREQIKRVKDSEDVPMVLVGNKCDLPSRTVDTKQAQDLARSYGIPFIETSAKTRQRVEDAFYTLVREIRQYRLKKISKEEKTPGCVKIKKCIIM

For the molecule `Cc1nc2c(F)c(-c3cccc4ccc(F)cc34)c(CCC#N)cc2c2c1cc(CN1CCCCC1=O)n2[C@H]1[C@H]2CN[C@@H]1C2`, the IC50 in [1] came out at 1030 nM; on GTPase KRas [4] it was 6.1 nM; in series [5], 39 nM. Also, in series [2], the hepatic clearance at 1 µM is over 18.3 mL/min/kg. For the same molecule, in series [3], the Papp A→B at 2 h, 50 µM was found to be 0.7 ×10⁻⁶ cm/s.
On to `CN(C)C1CN(c2nc(N3CC4CCC(C3)N4)c3cc(Cl)c(-c4cc(O)cc5ccccc45)c(F)c3n2)C1`, for which, on GTPase KRas [4], the IC50 was 704 nM.
Take `CN(C)C(=O)CCc1nc2c(N3CC(C)(N(C)C)C3)nc3c(F)c(-c4cc(O)cc5ccccc45)c(CCC#N)cc3c2n1[C@H]1[C@H]2CN[C@@H]1C2`: the IC50 in [1] was 1240 nM; on GTPase KRas [4], 2.9 nM; in [5], 92 nM. Further, the Kd on GTPase KRas [6] came to 0.031 nM.
`CCOc1nc2c(F)c(-c3cccc4ccc(F)cc34)c(CCC#N)cc2c2c1cc(CCC(=O)N(C)C)n2[C@H]1[C@H]2CN[C@@H]1C2`: in series [2], the hepatic clearance at 1 µM is 11.7 mL/min/kg. On GTPase KRas [4], the IC50 amounted to 391 nM.
`CC(Oc1nc2c(F)c(-c3cc(O)cc4ccccc34)c(CCC#N)cc2c2c1cc(CCC(=O)N(C)C)n2[C@H]1[C@H]2CN[C@@H]1C2)C1CCCN1C` (single isomer, unassigned): the figures for the IC50 (in series [1]; on GTPase KRas [4]; in series [5]) were 2620 nM, 3.6 nM and 54 nM, respectively. Further, the Kd at GTPase KRas [6] came out at 0.1 nM.
In the case of `CN(C)C1CN(c2nc3c(F)c(-c4cc(O)cc5ccccc45)c(Cl)cc3c3c2ncn3[C@H]2[C@H]3CN[C@@H]2C3)C1`, on GTPase KRas [4], the concentration for half-maximal inhibition (IC50) came out at 671 nM.
`CCOc1nc2c(F)c(-c3cc(O)cc4ccccc34)c(CCC#N)cc2c2c1cc(CCC(=O)N(C)C)n2[C@H]1[C@H]2CN[C@@H]1C2`: the IC50 stood at 492 nM in [1], 3.8 nM at GTPase KRas [4] and 28 nM in series [5]. The hepatic clearance at 1 µM in series [2] was over 18.3 mL/min/kg. For the same molecule, in [3], the Papp A→B at 2 h, 50 µM amounted to 0.2 ×10⁻⁶ cm/s. Moreover, the Kd at GTPase KRas [6] came to 0.26 nM.
`Cc1nc2c(F)c(-c3cccc4ccc(F)cc34)c(CCC#N)cc2c2c1cc(CN1CCOCC1=O)n2[C@H]1[C@H]2CN[C@@H]1C2`: the IC50 in series [1] amounted to 677 nM; on GTPase KRas [4] it was 2.7 nM; in series [5], 7.2 nM. The hepatic clearance at 1 µM in [2] is over 18.3 mL/min/kg. For the same molecule, in series [3], the Papp A→B at 2 h, 50 µM was determined as 0.7 ×10⁻⁶ cm/s.
With `Cc1cc(-c2nc3c(F)c(-c4cccc5ccc(F)cc45)c(CCC#N)cc3c3c2cc([C@@H](C)N2CCOCC2=O)n3[C@H]2[C@H]3CN[C@@H]2C3)ccn1`, the IC50 was found to be 103 nM in series [1], 2.1 nM at GTPase KRas [4] and 7.5 nM in [5]. In addition, the hepatic clearance at 1 µM in [2] is over 18.3 mL/min/kg. For the same molecule, the Papp A→B at 2 h, 50 µM in [3] is 0.6 ×10⁻⁶ cm/s. Also, at GTPase KRas [6], the Kd was 0.94 nM.
As to `CCOc1nc2c(F)c(-c3cc(O)cc4ccccc34)c(CCC#N)cc2c2c1cc(CN1CCCCC1=O)n2[C@H]1[C@H]2CN[C@@H]1C2`, the values for the IC50 (in [1]; at GTPase KRas [4]; in series [5]) were 2350 nM, 2.6 nM and 21 nM, respectively. The hepatic clearance at 1 µM in [2] is over 18.3 mL/min/kg. Further, in series [3], the Papp A→B at 2 h, 50 µM was determined as 0.2 ×10⁻⁶ cm/s. Further, the Kd on GTPase KRas [6] is 0.05 nM.
For the molecule `N#CCCc1cc2c(nc(OC[C@@]34CCCN3C[C@H](F)C4)c3cc(CCC(=O)N4CCC4)n([C@@H]4[C@H]5CN[C@@H]4C5)c32)c(F)c1-c1cccc2ccc(F)cc12`, the results for the IC50 in series [1] and in [5] were 1100 nM and 62 nM, respectively. For the same molecule, the Kd on GTPase KRas [6] amounted to 0.24 nM.
Consider `Cc1nc2c(F)c(-c3cc(O)cc4ccccc34)c(CCC#N)cc2c2c1cc(CN1CCCCC1=O)n2[C@H]1[C@H]2CN[C@@H]1C2`, for which the IC50 was determined as 597 nM in series [1], 3.5 nM on GTPase KRas [4] and 45 nM in series [5].
In the case of `CC(Oc1nc2c(F)c(-c3cc(O)cc4ccccc34)c(CCC#N)cc2c2c1nc(CCC(=O)N(C)C)n2[C@H]1[C@H]2CN[C@@H]1C2)C1CCCN1C` (single isomer, unassigned), the IC50 on GTPase KRas [4] was 15 nM; in series [5], 1240 nM.
For `Cc1cc2c(nc(N3CC(N(C)C)C3)c3nc(CCC(=O)N(C)C)n([C@H]4[C@H]5CN[C@@H]4C5)c32)c(F)c1-c1cc(O)cc2ccccc12`, the IC50 on GTPase KRas [4] turned out to be 12 nM; in series [5] it was 1300 nM. For the same molecule, the Kd at GTPase KRas [6] was found to be 3 nM.
On to `CN(C)C(=O)CCc1cc2c(N3CC(C)(N(C)C)C3)nc3c(F)c(-c4cc(O)cc5ccccc45)c(CCC#N)cc3c2n1[C@H]1[C@H]2CN[C@@H]1C2`, for which the results for the IC50 (in series [1]; at GTPase KRas [4]; in [5]) were 1130 nM, 3 nM and 104 nM, respectively. Besides, the Kd on GTPase KRas [6] worked out at 0.04 nM.
Take `N#CCCc1cc2c(nc(-n3cncn3)c3cc(CN4CCOCC4=O)n([C@H]4[C@H]5CN[C@@H]4C5)c32)c(F)c1-c1cccc2ccc(F)cc12`: the results for the IC50 (in [1]; on GTPase KRas [4]; in series [5]) were 519 nM, 3.7 nM and 10 nM, respectively. Also, in [2], the hepatic clearance at 1 µM is over 18.3 mL/min/kg. Also, in series [3], the apical-to-basolateral permeability (Papp A→B) at 2 h, 50 µM amounted to 1.7 ×10⁻⁶ cm/s. Further, the Kd at GTPase KRas [6] worked out at 0.84 nM.
On to `Cc1cnc(-c2nc3c(F)c(-c4cccc5ccc(F)cc45)c(CCC#N)cc3c3c2cc([C@@H](C)N2CCOCC2=O)n3[C@H]2[C@H]3CN[C@@H]2C3)cn1`, for which the concentration for half-maximal inhibition (IC50) in [1] amounted to 55 nM; on GTPase KRas [4], 2.8 nM; in [5] it was 6.8 nM. Moreover, the bioavailability in [7] came to 2%; in series [9] it was 20%. Besides, the half-life in series [8] is 4.9 h; in series [11], 2.5 h. Further, the hepatic clearance at 1 µM in series [2] was over 18.3 mL/min/kg. In series [3], the Papp A→B at 2 h, 50 µM was found to be 1.4 ×10⁻⁶ cm/s. Moreover, the Cmax in series [10] worked out at 7.2 nM; in series [15], 24 nM. Besides, the QH in the series on Primates is 39%; in [12] it was over 100%. In addition, the exposure (AUC) at 24 h in [13] is 0.085 µM·h. In addition, the Kd at GTPase KRas [6] is 1.5 nM. Further, the AUC in series [14] came out at 0.068 µM·h.
Consider `CN(C)C1CN(c2nc(N3CCNCC3)c3cc(Cl)c(-c4cc(O)cc5ccccc45)c(F)c3n2)C1`, for which the IC50 on GTPase KRas [4] came to 8000 nM.
Turning to `CN(C)C(=O)CCc1nc2c(N3CC(N(C)C)C3)nc3c(F)c(-c4cc(O)cc5ccccc45)c(CCC#N)cc3c2n1[C@H]1[C@H]2CN[C@@H]1C2`, the figures for the IC50 (in series [1]; at GTPase KRas [4]; in series [5]) were 977 nM, 2.9 nM and 127 nM, respectively. At GTPase KRas [6], the Kd came out at 0.02 nM.
`CN(C)C(=O)CCc1cc2c(OC[C@@]34CCCN3C[C@H](F)C4)nc3c(F)c(-c4cc(O)cc5ccccc45)c(CCC#N)cc3c2n1[C@H]1[C@H]2CN[C@@H]1C2`: the values for the half-inhibitory concentration (IC50) (in series [1]; on GTPase KRas [4]; in series [5]) were 410 nM, 2.1 nM and 20 nM, respectively. Moreover, the hepatic clearance at 1 µM in [2] is over 18.3 mL/min/kg. Moreover, the Papp A→B at 2 h, 50 µM in [3] is under 0.1 ×10⁻⁶ cm/s. Also, the Kd at GTPase KRas [6] was under 0.001 nM.
